Test results: US10745401B2, “Condensed lactam derivative” (Sumitomo Dainippon Pharma Co., Ltd., priority 2018, dated 2020)

How the values were obtained:
human 5-HT1A receptor [1] = target: T1, human 5-HT1A receptor (Homo sapiens (Human), UniProt P08908); test: Test 1: binding activity for human 5-HT1A receptor ([3H]8-OH-DPAT, CHO cell membrane fraction)
How it was run: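 Membranes incubated with [3H]8-OH-DPAT and compound for 60 min at room temperature, then filtered on polyethylenimine-coated glass-fibre plates and counted by liquid scintillation. IC50 from Hill analysis; Ki = IC50/(1+S/Kd), Kd from saturation binding on the same membranes.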

human D2 receptor = human D2 receptor (Homo sapiens (Human), UniProt P14416); test: Test 1: binding activity for human D2 receptor ([3H]Spiperone, CHO cell membrane fraction); conditions: human D2 receptor, [3H]Spiperone
Chain of human D2 receptor (P14416 whole entry): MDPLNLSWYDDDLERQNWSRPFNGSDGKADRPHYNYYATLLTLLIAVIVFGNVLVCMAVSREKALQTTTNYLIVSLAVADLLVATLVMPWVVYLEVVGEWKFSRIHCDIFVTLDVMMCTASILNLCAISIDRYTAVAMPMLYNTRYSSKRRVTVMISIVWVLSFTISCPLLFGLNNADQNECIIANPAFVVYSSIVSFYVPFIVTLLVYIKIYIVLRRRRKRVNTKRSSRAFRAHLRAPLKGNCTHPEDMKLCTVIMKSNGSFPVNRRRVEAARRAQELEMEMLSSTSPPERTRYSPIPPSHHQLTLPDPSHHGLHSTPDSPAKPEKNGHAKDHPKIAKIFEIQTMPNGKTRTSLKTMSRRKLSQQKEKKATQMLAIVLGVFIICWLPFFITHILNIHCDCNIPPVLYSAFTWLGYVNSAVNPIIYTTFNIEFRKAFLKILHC
How it was run: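 Compound displacement of [3H]ketanserin at 5-HT2A or [3H]spiperone at D2 was measured in CHO membrane fractions after 60 min at room temperature, with filtration and scintillation counting. IC50 was converted to Ki by Cheng–Prusoff using ligand concentration and Kd from saturation binding.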

human 5-HT1A receptor [2] = target: T1, human 5-HT1A receptor; test: Test 2: agonist activity for human 5-HT1A receptor ([35S]GTPγS binding); type: biochemical; conditions: for EC50: [35S]GTPγS binding, concentration at which half the activity of Emax was obtained; for Emax at 10 µM: agonist activity in the presence of 10 μM of compound, relative to 100 μmol/L 5-HT
How it was run: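 [35S]GTPγS binding read-out: after 60 min at room temperature with test compound in GDP buffer, human 5-HT1A receptor CHO membranes were vacuum-filtered and retained radioactivity scintillation-counted. Agonist activity calculated by formula.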

[3] = Test 4: metabolic stability test in human hepatic microsome; type: in vitro ADME; conditions: 0.1 mg/mL microsome, 0.1 μmol/L compound, 37° C., 30 minutes
How it was run: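 LC-MS quantified remaining parent after 30 min, 37° C, in pH 7.4 25 mmol/L phosphate containing 0.1 mg/mL human hepatic microsomes, 3.2 mmol/L NADPH and 0.1 μmol/L test compound. Value given as −LN(residual ratio)/30/0.1, mL/min/mg protein.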

hERG channel = hERG channel (Homo sapiens (Human), UniProt Q12809); test: Test 6-1: inhibitory activity for hERG channel (auto patch clamp, Qpatch); type: cell-based; conditions: whole cell auto patch clamp, hERG-CHO cells; read-out: hERG inhibition IC50
Chain of hERG channel (Q12809 whole entry): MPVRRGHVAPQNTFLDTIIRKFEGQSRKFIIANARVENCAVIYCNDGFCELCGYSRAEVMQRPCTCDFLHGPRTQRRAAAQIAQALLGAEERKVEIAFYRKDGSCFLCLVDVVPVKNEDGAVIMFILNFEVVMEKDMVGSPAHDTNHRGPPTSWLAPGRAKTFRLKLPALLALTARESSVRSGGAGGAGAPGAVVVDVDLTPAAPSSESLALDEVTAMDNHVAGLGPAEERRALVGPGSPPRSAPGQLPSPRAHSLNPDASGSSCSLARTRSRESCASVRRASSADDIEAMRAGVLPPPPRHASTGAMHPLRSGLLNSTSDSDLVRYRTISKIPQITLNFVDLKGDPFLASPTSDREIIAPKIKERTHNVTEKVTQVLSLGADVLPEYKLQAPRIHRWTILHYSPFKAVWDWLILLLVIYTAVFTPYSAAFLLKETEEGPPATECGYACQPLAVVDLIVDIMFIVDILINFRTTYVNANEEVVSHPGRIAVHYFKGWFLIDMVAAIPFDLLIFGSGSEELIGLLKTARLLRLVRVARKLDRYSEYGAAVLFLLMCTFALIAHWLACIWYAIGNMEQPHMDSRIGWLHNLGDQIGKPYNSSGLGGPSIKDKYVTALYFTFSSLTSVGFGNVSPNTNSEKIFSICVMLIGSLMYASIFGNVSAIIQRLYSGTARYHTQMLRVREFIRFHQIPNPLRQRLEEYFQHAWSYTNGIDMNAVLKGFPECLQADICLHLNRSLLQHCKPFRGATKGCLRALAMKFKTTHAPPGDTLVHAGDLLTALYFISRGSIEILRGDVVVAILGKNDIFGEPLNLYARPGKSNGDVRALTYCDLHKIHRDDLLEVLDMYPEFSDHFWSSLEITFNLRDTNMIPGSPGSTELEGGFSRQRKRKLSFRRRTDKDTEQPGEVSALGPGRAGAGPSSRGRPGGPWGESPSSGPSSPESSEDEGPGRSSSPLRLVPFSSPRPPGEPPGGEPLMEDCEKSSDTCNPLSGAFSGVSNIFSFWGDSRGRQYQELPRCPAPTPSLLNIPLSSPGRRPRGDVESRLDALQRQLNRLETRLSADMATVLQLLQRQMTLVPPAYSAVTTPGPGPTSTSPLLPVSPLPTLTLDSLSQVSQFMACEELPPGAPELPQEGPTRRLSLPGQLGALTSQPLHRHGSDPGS
How it was run: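 Whole-cell patch clamp on an automated system using CHO cells stably expressing human hERG (IKr); 15 s pulse interval. Four increasing compound concentrations applied cumulatively; mean peak tail current from last 3 stimulations per concentration used. IC50 from inhibition versus pre-compound current, fitted by Hill equation.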

T1 sequence (P08908 whole entry): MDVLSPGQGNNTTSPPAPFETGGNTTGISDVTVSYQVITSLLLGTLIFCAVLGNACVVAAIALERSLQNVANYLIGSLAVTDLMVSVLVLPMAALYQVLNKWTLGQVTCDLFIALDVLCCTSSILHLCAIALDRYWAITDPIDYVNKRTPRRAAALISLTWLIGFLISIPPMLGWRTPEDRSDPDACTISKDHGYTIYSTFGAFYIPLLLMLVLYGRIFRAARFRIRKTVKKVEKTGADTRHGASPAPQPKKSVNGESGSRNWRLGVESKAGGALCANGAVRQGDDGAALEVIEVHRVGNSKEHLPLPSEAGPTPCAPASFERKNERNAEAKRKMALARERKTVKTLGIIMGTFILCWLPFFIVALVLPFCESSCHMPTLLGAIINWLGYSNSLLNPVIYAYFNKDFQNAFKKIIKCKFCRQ

SMILES | Ki (human 5-HT1A receptor [1]) | Ki (human D2 receptor) | EC50 (human 5-HT1A receptor [2]) | Emax at 10 µM (human 5-HT1A receptor [2]) | Metabolic stability in human hepatic microsome [3] | IC50 (hERG channel)
Cc1nc(C)c2c(=O)n(CCN3CCC(c4noc5ccccc45)CC3)ccc2n1 [Example 114, 6-{2-[4-(1,2-Benzoisoxazol-3-yl)piperidin-1-yl]ethyl}-2,4-dimethylpyrido[4,3-d]pyrimidin-5(6H)-one] | 11.3 nM | 309 nM | 43.8 nM | 64% | 0.102 mL/min/mg protein | 2700 nM
O=c1c2ncccc2ccn1CCN1CCN(c2noc3ccccc23)CC1 [Example 117] | 36.6 nM | 1740 nM | 570 nM | 40% | <0.05 mL/min/mg protein | 4400 nM
O=C1c2sccc2CCN1CCN1CCC(c2noc3ccccc23)CC1 [Example 126] | 15.9 nM | 93 nM | 67.2 nM | 60% | 0.135 mL/min/mg protein | < 300 nM
O=C1c2occc2CCN1CCN1CCC(c2noc3ccccc23)CC1 [Example 127] | 35.7 nM | 203 nM | 56.9 nM | 48% | <0.05 mL/min/mg protein | 600 nM
Cn1ncc2c1CCN(CCN1CCC(c3noc4ccccc34)CC1)C2=O [Example 130] | 23.8 nM | 541 nM | 841 nM | 44% | <0.05 mL/min/mg protein | 1600 nM
Cc1noc2ccn(CCN3CCC(c4noc5ccccc45)CC3)c(=O)c12 [Example 132] | 16 nM | 750 nM | 74.5 nM | 59% | 0.148 mL/min/mg protein | 700 nM
Cn1cnc2c1C(=O)N(CCN1CCC(c3noc4ccccc34)CC1)CC2 [Example 133] | 327 nM | 914 nM | 290 nM | 26% | <0.05 mL/min/mg protein | 4700 nM
Cn1cnc2c1C(=O)N(CCN1CCC(c3noc4ccccc34)CC1)CCC2 [Example 134] | 65.3 nM | 310 nM | 221 nM | 41% | <0.05 mL/min/mg protein | 3500 nM
O=C1c2cnccc2C2(CC2)CN1CCN1CCN(c2noc3ccccc23)CC1 [Example 136] | 75.8 nM | 2300 nM | 562 nM | 30% | 0.598 mL/min/mg protein | 6000 nM
Cc1cncc2c1CCN(CCN1CCC(c3noc4ccccc34)CC1)C2=O [Example 138] | 27.6 nM | 76 nM | 100 nM | 32% | 0.083 mL/min/mg protein | 1200 nM
Cc1nc(C)c2c(n1)CCN(CCN1CCC(c3noc4ccccc34)CC1)C2=O [Example 139] | 20.3 nM | 635 nM | 72.7 nM | 48% | <0.05 mL/min/mg protein | 3800 nM
Cn1ncc2c1C(=O)N(CCN1CCC(c3noc4ccccc34)CC1)CCC2 [Example 155] | 14 nM | 114 nM | 74.2 nM | 63% | 0.121 mL/min/mg protein | 700 nM
CC(C)n1cc2c(n1)CCN(CCN1CCN(c3nsc4ccccc34)CC1)C2=O [Example 162] | 13.8 nM | 508 nM | 55 nM | 61% | 0.196 mL/min/mg protein | 1200 nM
Cn1ccc2c1CCN(CCN1CCN(c3noc4ccccc34)CC1)C2=O [Example 170] | 35.2 nM | 1680 nM | 823 nM | 42% | <0.05 mL/min/mg protein | 7400 nM

These reach a lower Ki (human 5-HT1A receptor [1]). Values come first.

Ki (human 5-HT1A receptor [1]) | Ki (human D2 receptor) | EC50 (human 5-HT1A receptor [2]) | Emax at 10 µM (human 5-HT1A receptor [2]) | Metabolic stability in human hepatic microsome [3] | SMILES | IC50 (hERG channel)
0.25 nM | 852 nM | 1.1 nM | 74% | 0.194 mL/min/mg protein | N#Cc1cc2c(cn1)C(=O)N(CCN1CCN(c3nsc4ccccc34)CC1)CC2 [Example 102, 7-{2-[4-(1,2-Benzoisothiazol-3-yl)piperazin-1-yl]ethyl}-8-oxo-5,6,7,8-tetrahydro-2,7-naphthyridine-3-carbonitrile] | 1000 nM
0.41 nM | 93 nM | 1.99 nM | 64% | 0.358 mL/min/mg protein | CCc1cc2c(cn1)C(=O)N(CCN1CCN(c3nsc4ccccc34)CC1)CC2 [Example 104, 2-{2-[4-(1,2-Benzoisothiazol-3-yl)piperazin-1-yl]ethyl}-6-ethyl-3,4-dihydro-2,7-naphthyridin-1(2H)-one] | 700 nM
6 nM | 194 nM | 14 nM | 74% | 0.101 mL/min/mg protein | Cc1nn(C)c2c1C(=O)N(CCN1CCN(c3nsc4ccccc34)CC1)CC2 [Example 105, 5-{2-[4-(1,2-Benzoisothiazol-3-yl)piperazin-1-yl]ethyl}-1,3-dimethyl-1,5,6,7-tetrahydro-4H-pyrazolo[4,3-c]pyridin-4-one] | 7900 nM
1.63 nM | 804 nM | 38.4 nM | 74% | 0.244 mL/min/mg protein | COc1c2c(nn1C)CCN(CCN1CCN(c3nsc4ccccc34)CC1)C2=O [Example 106, 5-{2-[4-(1,2-Benzoisothiazol-3-yl)piperazin-1-yl]ethyl}-3-methoxy-2-methyl-2,5,6,7-tetrahydro-4H-pyrazolo[4,3-c]pyridin-4-one] | 4800 nM
0.08 nM | 244 nM | 7.67 nM | 64% | 0.210 mL/min/mg protein | [2H]C([2H])([2H])Oc1cc2c(cn1)C(=O)N(CCN1CCN(c3nsc4ccccc34)CC1)CC2([2H])[2H] [Example 107, 2-{2-[4-(1,2-Benzoisothiazol-3-yl)piperazin-1-yl]ethyl}-6-[(^2H3)methyloxy] (4,4-^2H2)-3,4-dihydro-2,7-naphthyridin-1(2H)-one] | 1700 nM
1.58 nM | 169 nM | 9.44 nM | 64% | 0.459 mL/min/mg protein | Cn1c(F)cc2c1CCN(CCN1CCN(c3nsc4ccccc34)CC1)C2=O [Example 112, 5-{2-[4-(1,2-Benzoisothiazol-3-yl)piperazin-1-yl]ethyl}-2-fluoro-1-methyl-1,5,6,7-tetrahydro-4H-pyrrolo[3,2-c]pyridin-4-one] | 2200 nM
1.4 nM | 62 nM | 6.14 nM | 54% | <0.05 mL/min/mg protein | Cc1cc2c(cn1)C(=O)N(CCN1CCC(c3noc4ccccc34)CC1)CC2 [Example 135] | 700 nM
5.36 nM | 188 nM | 36.9 nM | 54% | <0.05 mL/min/mg protein | Cc1ncc2c(n1)CCC(CCN1CCC(c3noc4ccccc34)CC1)C2=O (stereo not drawn) [Example 150] | 1200 nM
5.17 nM | 743 nM | 31 nM | 46% | <0.05 mL/min/mg protein | Cn1cc2c(n1)C(=O)N(CCN1CCC(c3noc4ccccc34)CC1)CC2 [Example 156] | 2100 nM
2.4 nM | 766 nM | 11 nM | 67% | 0.118 mL/min/mg protein | CCn1cc2c(n1)CCN(CCN1CCN(c3nsc4ccccc34)CC1)C2=O [Example 163] | 1400 nM
0.17 nM | 139 nM | 6.22 nM | 57% | <0.05 mL/min/mg protein | Cc1cc2c(n1C)CCCN(CCN1CCC(c3noc4ccccc34)CC1)C2=O [Example 166] | 1000 nM
0.14 nM | 71 nM | 0.84 nM | 60% | 0.413 mL/min/mg protein | Cc1cc2c(n1C)CCCN(CCN1CCN(c3nsc4ccccc34)CC1)C2=O [Example 167] | 1800 nM
1.02 nM | 145 nM | 100 nM | 52% | 0.924 mL/min/mg protein | O=C1c2cn(-c3ccccc3)nc2CCN1CCN1CCN(c2nsc3ccccc23)CC1 [Example 168] | < 300 nM
